Measurements from patent US20160022684A1, “BET INHIBITOR AND BRUTON'S TYROSINE KINASE INHIBITOR COMBINATIONS” (Pharmacyclics LLC, priority 2014, published 2016).

Legend:
OCI-LY10 = test: Combined drug treatment cell viability (CellTiter-Glo), ibrutinib with BET inhibitors, OCI-LY10; type: cell-based; conditions: OCI-LY-10, JQ1 1 uM, 3 days
Experimental: (§1) The DLBCL cell lines used during the experiments included TMD8, OCI-LY3, OCI-LY10, U-2932 and SU-DHL-2. DLBCL cells at either 1×10^4 cells or 2×10^4 cells were plated onto each well of a 96-W plate (Table 1). […] The 96-W plate was then incubated for 3 days. Cell viability was examined using a CellTiter-Glo assay. A 40 μL of CellTiter-Glo reagent was added directly into each well of the 96-W plate. The plate was then shaken on a Shaker ([…]) at speed 5 for 10-20 min at room temperature. Next, about 100 μL of the mixed medium was transferred to a white, non-transparent, flat bottom 96-W plate for assaying. […] Measurements were taken at room temperature. CellTiter-Glow reagents were thawed prior to use. Cells pre-plated onto a second 96-W plate and incubated at room temperature for 30 minutes were used for calibration purposes. […] CI is a quantitative description of the interaction property of the combination of two drugs.

U-2932 = test: Combined drug treatment cell viability (CellTiter-Glo), ibrutinib with BET inhibitors, U-2932; type: cell-based; conditions: U2932, JQ1 20 nM, 3 days
Experimental: as §1

TMD8 = test: Combined drug treatment cell viability (CellTiter-Glo), ibrutinib with BET inhibitors, TMD8; type: cell-based; conditions: JQ1 20 nM, 3 days
Experimental: as §1

OCI-LY3 = test: Combined drug treatment cell viability (CellTiter-Glo), ibrutinib with BET inhibitors, OCI-LY3; type: cell-based; conditions: OCI-LY-3, JQ1 1 uM, 3 days
Experimental: as §1

YAC-1 (target cells) = test: NK cell cytotoxicity of splenocytes from treated mice (A20 model); type: in vivo; conditions: combination of JQ1 with ibrutinib, splenocytes after 14 days of treatment, co-cultured with YAC-1 for 4 hours
Experimental: To determine the drug effect on NK cell cytotoxicity, splenocytes (effector cells) were harvested from mice after 14 days of treatment. The splenocytes were co-cultured with YAC-1 (target cells) for 4 hours. The percentage of target cell death (PI-positive cells) was analyzed by flow cytometry.

SU-DHL-2 = test: Combined drug treatment cell viability (CellTiter-Glo), ibrutinib with BET inhibitors, SU-DHL-2; type: cell-based; conditions: JQ1 100 nM, 3 days
Experimental: as §1

[1] = ibrutinib 0 nM (BET inhibitor alone): I-BET151 5 uM, OTX015 1 uM
[2] = ibrutinib 0.0256 nM with I-BET151 5 uM, OTX015 1 uM or medium alone (row)
[3] = ibrutinib 0.64 nM with I-BET151 5 uM, OTX015 1 uM or medium alone (row)
[4] = ibrutinib 3.2 nM with I-BET151 5 uM, OTX015 1 uM or medium alone (row)
[5] = ibrutinib 16 nM with I-BET151 5 uM, OTX015 1 uM or medium alone (row)
[6] = ibrutinib 80 nM with I-BET151 5 uM, OTX015 1 uM or medium alone (row)
[7] = ibrutinib 400 nM with I-BET151 5 uM, OTX015 1 uM or medium alone (row)
[8] = ibrutinib 2000 nM with I-BET151 5 uM, OTX015 1 uM or medium alone (row)
[9] = ibrutinib 10000 nM with I-BET151 5 uM, OTX015 1 uM or medium alone (row)
[10] = ibrutinib […] with I-BET151 5 uM, OTX015 1 uM or medium alone (row)

## Cc1sc2c(c1C)C(c1ccc(Cl)cc1)=N[C@@H](CC(=O)OC(C)(C)C)c1nnc(C)n1-2 [JQ1]
OCI-LY10; [1]
  luminescent signals: 41458.59
OCI-LY10; [2]
  luminescent signals: 45492.43
OCI-LY10; [3]
  luminescent signals: 52166.4
OCI-LY10; [4]
  luminescent signals: 39783.52
OCI-LY10; [5]
  luminescent signals: 26164.72
OCI-LY10; [6]
  luminescent signals: 24844.65
OCI-LY10; [7]
  luminescent signals: 24502.8
OCI-LY10; [8]
  luminescent signals: 24579.06
OCI-LY10; [9]
  luminescent signals: 25346.91
OCI-LY10; [10]
  luminescent signals: 47932.71
U-2932; ibrutinib 0 nM (BET inhibitor alone): I-BET151 200 nM, OTX015 50 nM (Table 2)
  luminescent signals: 55050.2
U-2932; ibrutinib 0.0256 nM with I-BET151 200 nM, OTX015 50 nM (Table 2) or medium alone (row)
  luminescent signals: 52636.54
U-2932; ibrutinib 0.64 nM with I-BET151 200 nM, OTX015 50 nM (Table 2) or medium alone (row)
  luminescent signals: 46610.32
U-2932; ibrutinib 3.2 nM with I-BET151 200 nM, OTX015 50 nM (Table 2) or medium alone (row)
  luminescent signals: 47334.95
U-2932; ibrutinib 16 nM with I-BET151 200 nM, OTX015 50 nM (Table 2) or medium alone (row)
  luminescent signals: 46417.97
U-2932; ibrutinib 80 nM with I-BET151 200 nM, OTX015 50 nM (Table 2) or medium alone (row)
  luminescent signals: 49232.14
U-2932; ibrutinib 400 nM with I-BET151 200 nM, OTX015 50 nM (Table 2) or medium alone (row)
  luminescent signals: 44892.31
U-2932; ibrutinib 2000 nM with I-BET151 200 nM, OTX015 50 nM (Table 2) or medium alone (row)
  luminescent signals: 44099.18
U-2932; ibrutinib 10000 nM with I-BET151 200 nM, OTX015 50 nM (Table 2) or medium alone (row)
  luminescent signals: 33551.32
U-2932; ibrutinib […] with I-BET151 200 nM, OTX015 50 nM (Table 2) or medium alone (row)
  luminescent signals: 54454.69
TMD8; ibrutinib 0 nM (BET inhibitor alone): I-BET151 200 nM, OTX015 100 nM
  luminescent signals: 59694.27
TMD8; ibrutinib 0.0256 nM with I-BET151 200 nM, OTX015 100 nM or medium alone (row)
  luminescent signals: 18249.87
TMD8; ibrutinib 0.64 nM with I-BET151 200 nM, OTX015 100 nM or medium alone (row)
  luminescent signals: 16842.39
TMD8; ibrutinib 3.2 nM with I-BET151 200 nM, OTX015 100 nM or medium alone (row)
  luminescent signals: 16468.11
TMD8; ibrutinib 16 nM with I-BET151 200 nM, OTX015 100 nM or medium alone (row)
  luminescent signals: 16312.6
TMD8; ibrutinib 80 nM with I-BET151 200 nM, OTX015 100 nM or medium alone (row)
  luminescent signals: 15297.84
TMD8; ibrutinib 400 nM with I-BET151 200 nM, OTX015 100 nM or medium alone (row)
  luminescent signals: 15282.03
TMD8; ibrutinib 2000 nM with I-BET151 200 nM, OTX015 100 nM or medium alone (row)
  luminescent signals: 15571.96
TMD8; ibrutinib 10000 nM with I-BET151 200 nM, OTX015 100 nM or medium alone (row)
  luminescent signals: 9818.137
TMD8; ibrutinib […] with I-BET151 200 nM, OTX015 100 nM or medium alone (row)
  luminescent signals: 18911.45
OCI-LY3; [1]
  luminescent signals: 20530.28
OCI-LY3; [2]
  luminescent signals: 21973.49
OCI-LY3; [3]
  luminescent signals: 23078.2
OCI-LY3; [4]
  luminescent signals: 22419.57
OCI-LY3; [5]
  luminescent signals: 21821.3
OCI-LY3; [6]
  luminescent signals: 21944.63
OCI-LY3; [7]
  luminescent signals: 22621.62
OCI-LY3; [8]
  luminescent signals: 24841.54
OCI-LY3; [9]
  luminescent signals: 21414.57
OCI-LY3; [10]
  luminescent signals: 22582.26
YAC-1 (target cells)
  NK cytotoxicity (percentage of target cell death, PI-positive cells): enhanced NK cytotoxicity
SU-DHL-2; ibrutinib 0 nM (BET inhibitor alone): I-BET151 2 uM, OTX015 1 uM (Table 2)
  luminescent signals: 17739.9
SU-DHL-2; ibrutinib 0.0256 nM with I-BET151 2 uM, OTX015 1 uM (Table 2) or medium alone (row)
  luminescent signals: 22662.83
SU-DHL-2; ibrutinib 0.64 nM with I-BET151 2 uM, OTX015 1 uM (Table 2) or medium alone (row)
  luminescent signals: 19308.19
SU-DHL-2; ibrutinib 3.2 nM with I-BET151 2 uM, OTX015 1 uM (Table 2) or medium alone (row)
  luminescent signals: 25589.27
SU-DHL-2; ibrutinib 16 nM with I-BET151 2 uM, OTX015 1 uM (Table 2) or medium alone (row)
  luminescent signals: 20485.07
SU-DHL-2; ibrutinib 80 nM with I-BET151 2 uM, OTX015 1 uM (Table 2) or medium alone (row)
  luminescent signals: 19823.08
SU-DHL-2; ibrutinib 400 nM with I-BET151 2 uM, OTX015 1 uM (Table 2) or medium alone (row)
  luminescent signals: 23679.47
SU-DHL-2; ibrutinib 2000 nM with I-BET151 2 uM, OTX015 1 uM (Table 2) or medium alone (row)
  luminescent signals: 29411.5
SU-DHL-2; ibrutinib 10000 nM with I-BET151 2 uM, OTX015 1 uM (Table 2) or medium alone (row)
  luminescent signals: 3706.648
SU-DHL-2; ibrutinib […] with I-BET151 2 uM, OTX015 1 uM (Table 2) or medium alone (row)
  luminescent signals: 19174.22
